Laboratory results published in patent publication US20130189764A1, “SELECTIVE GROWTH MEDIA” (Oxide Limited, priority 2000, published 2013).
≈ marks a conversion by molar mass, not a printed value.

Legend:
Format in all cases: cell-based
[1] = system: Salmonella typhimurium and Salmonella worthington; assay: Bioscreen growth in Lab-Lemco broth (Example 9A), Salmonella strains; conditions: 128 μg/ml, Lab-Lemco broth pH 6.0, 37° C.
Description: (§1) […] […] Plates were then covered, incubated at 37° C., and the opacity of the organism suspensions measured using a Bioscreen instrument (a semi-automated microbiological growth analyser, available from Thermolabsystems, Ashford, Middlesex, U.K.).
(§2) The results are shown in FIG. 13, which is a graph of optical density against time (in hours). The optical density readings were taken in “wide band” (wb) mode, i.e. using white light without any filter.

[2] = system: Citrobacter freundii, Enterobacter aerogenes, Enterobacter cloacae; assay: Bioscreen growth in Lab-Lemco broth (Example 9A), other strains; conditions: 128 μg/ml, Lab-Lemco broth pH 6.0, 37° C., other strains tested
Description: as §1, §2

[3] = system: Citrobacter freundii OCC 370; assay: mixed culture viable count in Nutrient Broth No. 2 (Example 9B); conditions: 128 μg/ml, Nutrient Broth No. 2, mixed culture with Salmonella, 37° C.
Description: (§3) L-Pyroglutamyl-L-aminoethylphosphonate was added to Oxoid Nutrient Broth No. 2 (final concentration=128 μg/ml) contained in a universal tube in a water bath at 37° C. Citrobacter freundii OCC 370 and Salmonella typhimurium OCC 626 were grown overnight in Nutrient Broth No. 2 at 37° C., diluted 1 in 1000 in Maximal Recovery Diluent and amounts added to the Nutrient Broth to give final concentrations of about 10^4 cfu/ml of each organism. At intervals samples were taken and spread on XLD and the number of red colonies with black centres enumerated as Salmonella and yellow ones as Citrobacter.
(§4) The results are shown in FIG. 14, which is a graph of Log10 viable count (cfu/ml) against time (in hours). The plots for C. freundii are shown by lozenge symbols, whist those for S. typhimurium are shown by squares. Filled symbols and solid lines show results in the presence of Pyr-AEP, empty symbols and dotted lines show results in the absence of Pyr-AEP.

[4] = system: Salmonella typhimurium OCC 626; assay: as above; conditions: 128 μg/ml, Nutrient Broth No. 2, mixed culture with Citrobacter, 37° C.
Description: as §3, §4

[5] = system: Citrobacter freundii OCC261; assay: MIC from Bioscreen growth curves in various media (Example 13)
Description: (§5) In general, media containing a higher concentration of short chain peptides, for example hydrolysed casein, reduced the effectiveness of the inhibitor. Thus, Pyr-AEP was dissolved in deionised water (51.2 mg/ml), filter sterilised, and amounts of the solution added to autoclaved Bacteriological Peptone, Casein Hydrolysate, Lab-Lemco broth and Proteose Peptone (20 g/l; pH 7.3) to give a dilution series of 1,477, 739, 369, 185 μg/ml. Volumes ([…]) of these solutions were then pipetted into the wells of Bioscreen microtitre plates and 30 μl quantities of 1 in 10,000 dilutions of overnight cultures of Citrobacter freundii OCC 261, Enterobacter aerogenes OCC 720, Salmonella enteritidis OCC 723 and Salmonella virchow OCC 703 added. Plates were then covered, incubated at 37° C., and the opacity of the organism suspensions, measured using a Bioscreen instrument.

[6] = system: Enterobacter aerogenes OCC720; assay: as above
Description: as §5

[7] = system: Salmonella enteritidis OCC723; assay: as above
Description: as §5

[8] = system: Salmonella virchow OCC703; assay: as above
Description: as §5

SMILES: C[C@H](NC(=O)[C@@H]1CCC(=O)N1)P(=O)(O)O [Pyr-AEP, L-pyroglutamyl-L-1-aminoethylphosphonic acid]
- growth (optical density) in presence of the agent [1]: not inhibited
- growth (optical density) in presence of the agent [2]: inhibited
- effect on growth (Log10 viable count) [3]: completely inhibitory
- effect on growth (Log10 viable count) [4]: no significant effect
- Minimum inhibitory concentration ([5]; Citrobacter freundii OCC261, Bacteriological Peptone): 168 µg/mL (≈ 0.711 mM)
- Minimum inhibitory concentration ([5]; Citrobacter freundii OCC261, Casein Hydrolysate): >1343 µg/mL
- Minimum inhibitory concentration ([5]; Citrobacter freundii OCC261, Lab-Lemco): 168 µg/mL (≈ 0.711 mM)
- Minimum inhibitory concentration ([5]; Citrobacter freundii OCC261, Proteose Peptone): 1343 µg/mL (≈ 5.69 mM)
- Minimum inhibitory concentration ([6]; Enterobacter aerogenes OCC720, Bacteriological Peptone): 671 µg/mL (≈ 2.84 mM)
- Minimum inhibitory concentration ([6]; Enterobacter aerogenes OCC720, Casein Hydrolysate): >1343 µg/mL
- Minimum inhibitory concentration ([6]; Enterobacter aerogenes OCC720, Lab-Lemco): 336 µg/mL (≈ 1.42 mM)
- Minimum inhibitory concentration ([6]; Enterobacter aerogenes OCC720, Proteose Peptone): >1343 µg/mL
- Minimum inhibitory concentration ([7]; Salmonella enteritidis OCC723, Bacteriological Peptone): 671 µg/mL (≈ 2.84 mM)
- Minimum inhibitory concentration ([7]; Salmonella enteritidis OCC723, Casein Hydrolysate): >1343 µg/mL
- Minimum inhibitory concentration ([7]; Salmonella enteritidis OCC723, Lab-Lemco): 1343 µg/mL (≈ 5.69 mM)
- Minimum inhibitory concentration ([7]; Salmonella enteritidis OCC723, Proteose Peptone): 1343 µg/mL (≈ 5.69 mM)
- Minimum inhibitory concentration ([8]; Salmonella virchow OCC703, Bacteriological Peptone): 671 µg/mL (≈ 2.84 mM)
- Minimum inhibitory concentration ([8]; Salmonella virchow OCC703, Casein Hydrolysate): >1343 µg/mL
- Minimum inhibitory concentration ([8]; Salmonella virchow OCC703, Lab-Lemco): 1343 µg/mL (≈ 5.69 mM)
- Minimum inhibitory concentration ([8]; Salmonella virchow OCC703, Proteose Peptone): 1343 µg/mL (≈ 5.69 mM)
